Reference: patent US20130096138A1, “NOVEL THIOUREA OR UREA DERIVATIVE, PREPARATION METHOD THEREOF, AND PHARMACEUTICAL COMPOSITION FOR PREVENTING OR TREATING AIDS, CONTAINING SAME AS ACTIVE INGREDIENT” (AVIXGEN INC., priority 2010, published 2013)

Tested on: HIV
Assay: Assay for inhibitory activity against HIV (p24 ELISA, infected MT-4 cells)
Format: cell-based
Conditions: Human immunodeficiency virus 1, MT4, MT-4 cells infected with pNL4-3-derived HIV, 48 hrs + additional 48 hrs culture, read-out: Conc. for Inhibition of HIV Activity (IC50)
Description: The thiourea or urea derivatives of the present invention were assayed for inhibitory activity against HIV as follows.
A pNL4-3 vector carrying an HIV genome was transduced into 293FT cells. […] 293FT cells were seeded at a density of 3.0×10^5 cells/well into 6-well plates containing antibiotic-free DMEM supplemented with 10% FBS and grown for 48 hrs. Upon 90˜95% confluency, the transduction was performed.
The DNA (pNL4-3) was added at a final concentration of 10 ng/mL to 250 μL of the reduced serum medium Opti-MEM I (GIBCO™, USA). Separately, 4 μL of Lipofectamine™ 2000 (Invitrogen, USA) was mixed with 250 μL of Opti-MEM I (GIBCO™), and incubated at room temperature for 5 min. The DNA (pNL4-3) was mixed at a ratio of 1:2 with the lipofectamine and reacted at room temperature for 20 min to form a DNA-lipofectamine complex. After removal of the medium from the cell culture, the DNA-lipofectamine complex was added to the cells and incubated for 4 hrs in a CO2 incubator. Then, the cell culture medium was replaced with a fresh antibiotic-free, 10% FBS-supplemented DMEM, followed by incubation for an additional 48 hrs. The HIV-infected cell culture was centrifuged at 1,500 rpm for 5 min to give a virus supernatant.
MT-4 cells were plated at a density of 1.0×10^6 cells/mL into 6-well plates containing RPMI supplemented with 10% FBS, and incubated for 4 hrs before infection at a ratio of 1:1 with the virus supernatant. The cells were incubated for 48 hrs in a CO2 incubator, after which the culture medium was replaced with a fresh one. Again, incubation was continued for an additional 72 hrs to amplify the virus. After centrifugation at 1,500 rpm for 5 min, the virus supernatant thus obtained was examined for virus density using a Virononstika HIV-1 Antigen Microelisa system kit (bioMerieux, Inc. Netherland).
2. Assay for Inhibitory Activity against HIV
The thiourea or urea derivatives prepared in Examples 1 to 94 were dissolved in DMSO to prepare respective 10 mM or 20 mM stocks, and stored at −20° C. The stocks were diluted to a starting concentration of 200 μM in DMSO before use in experiments.
MT-4 cells were suspended at a density of 4×10^5 cells in 200 μL of RPMI 1640 (Gibco, 10% FBS) per well of 24-well plates, and infected with 200 μL of a virus supernatant containing 2×10^5 pg/mL to give a total volume of 400 μL. After the stocks of the thiourea or urea derivatives were […] to 200 μM in DMSO, 2 μL of each dilution was added to the cells to a final concentration of 1 μM or less. For a positive control, 10 μM AZT (azidothymidine,Sigma, USA) was used at a final concentration of 50 nM while DMSO was used at a final concentration of 0.5% as a negative control. The cells were cultured for 48 hrs in a CO2 incubator (37° C., 5% CO2), and the culture medium was replaced by RPMI 1640 containing the thiourea or urea derivative at a final concentration of 1 μM, followed by incubation for an additional 48 hrs. Virus soups were separated from cells by centrifugation at 1,500 rpm for 5 min and then at 13,000 rpm for 5 min. ELISA for p24 concentrations was carried out using a Virononstika HIV-1 Antigen Microelisa system kit (bioMerieux, Inc. Netherland) to determine the inhibitory activity of each of the thiourea or urea derivatives against HIV.

First: CC(C)(C)c1ccc(C(=O)NC(=S)Nc2cccc3c(O)cccc23)cc1 [Example 1, 1-(4-tert-Butyl-benzoyl)-3-(5-hydroxy-naphthalen-1-yl)-thiourea]
Second: CC(C)(C)c1ccc(C(=O)NC(=S)Nc2cccc3ncccc23)cc1 [Example 50, 1-(4-tert-butyl-benzoyl)-3-(quinolin-5-yl)-thiourea]
The IC50 of the first is 33-fold lower: 30 nM for the first, 1000 nM for the second.

`CC(C)(C)c1ccc(C(=O)NC(=S)NC2CCCCC2)cc1` [Example 16, 1-(4-tert-butyl-benzoyl)-3-cyclohexyl-thiourea] and `CC(C)(C)c1ccc(C(=O)NC(=S)Nc2ccccn2)cc1` [Example 37, 1-(4-tert-butyl-benzoyl)-3-(pyridin-2-yl)-thiourea] are the same in IC50: 500 nM for the first, 500 nM for the second.

`CC(C)(C)c1ccc(C(=O)NC(=S)Nc2cccc(Cl)c2)cc1` [Example 38, 1-(4-tert-butyl-benzoyl)-3-(3-chloro-phenyl)-thiourea] showed an IC50 of 300 nM.
